Reference: patent US9156810B2, “Treatment of inflammatory bowel disease” (ALLERGAN, INC., priority 2003, dated 2015)

What was measured:
hEP4 [1] = molecular target: T1, hEP4 (Homo sapiens (Human), UniProt P35408); assay: FLIPR calcium signal, HEK-293(EBNA) cells expressing hEP4/Gqs5; format: cell-based; conditions: bottom number in Table 2, read-out: hEP4 functional EC50
Experimental: (§1) HEK-293(EBNA) cells, stably expressing one type or subtype of recombinant human prostaglandin receptors (prostaglandin receptors expressed: hDP/Gqs5; hEP1; hEP2/Gqs5; hEP3A/Gqi5; hEP4/Gqs5; hFP; hIP; hTP), were cultured in 100 mm culture dishes in high-glucose DMEM medium containing 10% fetal bovine serum, 2 mM 1-glutamine, 250 μg/ml geneticin (G418) and 200 μg/ml hygromycin B as selection markers, and 100 units/ml penicillin G, 100 μg/m streptomycin and 0.25 μg/m amphotericin B.
(§2) Cells were seeded at a density of 5×10^4 cells per well in Biocoat® Poly-D-lysine-coated black-wall, clear-bottom 96-well plates (Becton-Dickinson) and allowed to attach overnight in an incubator at 37° C. Cells were then washed two times with HBSS-HEPES buffer (Hanks Balanced Salt Solution without bicarbonate and phenol red, 20 mM HEPES, pH 7.4) using a Denley Cellwash plate washer (Labsystems). After 45 minutes of dye-loading in the dark, using the calcium-sensitive dye Fluo-4 AM at a final concentration of 2 μM, plates were washed four times with HBSS-HEPES buffer to remove excess dye leaving 100 μl in each well. Plates were re-equilibrated to 37° C. for a few minutes.
Cells were excited with an Argon laser at 488 nm, and emission was measured through a 510-570 nm bandwidth emission filter (FLIPR™, Molecular Devices, Sunnyvale, Calif.). […] The peak increase in fluorescence intensity was recorded for each well. On each plate, four wells each served as negative (HBSS-HEPES buffer) and positive controls (standard agonists: BW245C (hDP); PGE2 (hEP1; hEP2/Gqs5; hEP3A/Gqi5; hEP4/Gqs5); PGF2 (hFP); carbacyclin (hIP); U-46619 (hTP), depending on receptor). The peak fluorescence change in each drug-containing well was then expressed relative to the controls.
(§3) Compounds were tested in a high-throughput (HTS) or concentration-response (CoRe) format. In the HTS format, forty-four compounds per plate were examined in duplicates at a concentration of 10^−5 M. To generate concentration-response curves, four compounds per plate were tested in duplicates in a concentration range between 10^−5 and 10^−11 M. The duplicate values were averaged.

hEP4 [2] = molecular target: T1, hEP4; assay: Radioligand binding ([3H]PGE2), HEK-293 cell membranes expressing EP4 receptor; conditions: top number in Table 2
Experimental: (§4) HEK-293 cells stably expressing the human or feline FP receptor, or EP1, EP2, EP3, or EP4 receptors were washed with TME buffer, scraped from the bottom of the flasks, and homogenized for 30 sec using a Brinkman PT 10/35 polytron. TME buffer was added to achieve a final 40 ml volume in the centrifuge tubes (the composition of TME is 100 mM TRIS base, 20 mM MgCl2, […]; 10N HCl is added to achieve a pH of 7.4).
(§5) The cell homogenate was centrifuged at 19000 r.p.m. for 20 min at 4° C. using a Beckman Ti-60 rotor. The resultant pellet was resuspended in TME buffer to give a final 1 mg/ml protein concentration, as determined by Biorad assay. Radioligand binding competition assays vs. [^3H-]17-phenyl PGF2α, (5 nM) were performed in a 100 μl volume for 60 min. Binding reactions were started by adding plasma membrane fraction. The reaction was terminated by the addition of 4 ml ice-cold TRIS-HCl buffer and rapid filtration through glass fiber GF/B filters using a Brandel cell harvester. The filters were washed 3 times with ice-cold buffer and oven dried for one hour. Non-specific binding was determined with 10 uM unlabeled 17-phenyl PGF2α.
(§6) [^3H-] PGE2 (5 nM; specific activity 180 Ci mmol) was used as the radioligand for EP receptors. Binding studies employing EP1, EP2, EP3, EP4 were performed in duplicate in at least three separate experiments. A 200 μl assay volume was used. Incubations were for 60 min at 25° C. and were terminated by the addition of 4 ml of ice-cold 50 mM TRIS-HCl, followed by rapid filtration through Whatman GF/B filters and three additional 4 ml washes in a cell harvester (Brandel). Non-specific binding determined with 10^−5M of unlabeled PGE2.

hTP = hTP (Homo sapiens (Human), UniProt P21731); assay: Table 2 top number, hTP (radioligand binding per footnote); conditions: top number in Table 2
hTP, sequence (P21731 whole entry): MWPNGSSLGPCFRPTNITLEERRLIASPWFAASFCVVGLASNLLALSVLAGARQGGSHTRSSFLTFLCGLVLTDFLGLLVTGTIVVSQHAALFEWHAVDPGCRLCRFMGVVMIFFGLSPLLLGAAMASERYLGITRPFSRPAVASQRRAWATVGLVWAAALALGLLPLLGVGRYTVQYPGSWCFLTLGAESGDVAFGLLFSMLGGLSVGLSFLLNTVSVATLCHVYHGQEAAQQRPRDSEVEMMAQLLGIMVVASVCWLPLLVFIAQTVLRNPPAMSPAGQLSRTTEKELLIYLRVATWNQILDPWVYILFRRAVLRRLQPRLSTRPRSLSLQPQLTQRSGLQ

hEP3D = hEP3D (Homo sapiens (Human), UniProt P43115); assay: Radioligand binding ([3H]PGE2), HEK-293 cell membranes expressing EP3 receptor; conditions: top number in Table 2
hEP3D, sequence (P43115 other isoform, or with tags, fused parts or gaps): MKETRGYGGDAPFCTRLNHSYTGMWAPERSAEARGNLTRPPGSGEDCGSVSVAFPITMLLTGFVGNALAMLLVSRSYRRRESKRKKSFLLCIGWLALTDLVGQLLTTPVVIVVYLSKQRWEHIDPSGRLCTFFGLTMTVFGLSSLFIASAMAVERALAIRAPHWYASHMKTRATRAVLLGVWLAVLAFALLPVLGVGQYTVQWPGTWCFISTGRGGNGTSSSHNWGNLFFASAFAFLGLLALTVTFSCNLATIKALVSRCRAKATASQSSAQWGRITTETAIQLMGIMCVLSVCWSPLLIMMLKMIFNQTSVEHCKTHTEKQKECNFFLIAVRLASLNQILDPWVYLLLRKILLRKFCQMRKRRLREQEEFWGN
Experimental: as §4, §5, §6

hEP1 = hEP1 (Homo sapiens (Human), UniProt P34995); assay: Radioligand binding ([3H]PGE2), HEK-293 cell membranes expressing EP1 receptor; conditions: top number in Table 2
hEP1, sequence (P34995 whole entry): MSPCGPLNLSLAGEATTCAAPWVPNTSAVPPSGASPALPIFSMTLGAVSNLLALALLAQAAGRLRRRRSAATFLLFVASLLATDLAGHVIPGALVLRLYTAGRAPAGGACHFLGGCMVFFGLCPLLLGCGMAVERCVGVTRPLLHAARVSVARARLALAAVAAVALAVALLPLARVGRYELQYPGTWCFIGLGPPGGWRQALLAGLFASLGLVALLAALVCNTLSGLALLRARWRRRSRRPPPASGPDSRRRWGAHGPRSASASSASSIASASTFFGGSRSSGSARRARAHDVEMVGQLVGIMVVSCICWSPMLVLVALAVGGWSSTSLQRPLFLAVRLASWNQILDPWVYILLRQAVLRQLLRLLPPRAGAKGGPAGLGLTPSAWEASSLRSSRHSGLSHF
Experimental: as §4, §5, §6

hEP3A = hEP3A (Homo sapiens (Human), UniProt P43115); assay: FLIPR calcium signal, HEK-293(EBNA) cells expressing hEP3A/Gqi5; format: cell-based; conditions: bottom number in Table 2, read-out: hEP3A functional EC50
hEP3A, sequence (P43115 whole entry): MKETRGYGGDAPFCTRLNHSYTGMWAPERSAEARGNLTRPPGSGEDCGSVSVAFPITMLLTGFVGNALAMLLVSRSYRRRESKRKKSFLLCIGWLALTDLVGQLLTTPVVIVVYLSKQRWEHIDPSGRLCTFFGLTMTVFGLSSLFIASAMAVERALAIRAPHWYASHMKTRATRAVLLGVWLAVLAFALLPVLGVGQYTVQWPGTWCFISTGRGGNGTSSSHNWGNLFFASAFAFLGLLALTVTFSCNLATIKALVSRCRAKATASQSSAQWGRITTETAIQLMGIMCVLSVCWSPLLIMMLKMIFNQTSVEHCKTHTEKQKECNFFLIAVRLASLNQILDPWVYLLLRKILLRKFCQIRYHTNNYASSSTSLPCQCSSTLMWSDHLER
Experimental: as §1, §2
Cells were excited with an Argon laser at 488 nm, and emission was measured through a 510-570 nm bandwidth emission filter (FLIPR™, Molecular Devices, Sunnyvale, Calif.). Drug solution was added in a 50 μl volume to each well to give the desired final concentration. The peak increase in fluorescence intensity was recorded for each well. On each plate, four wells each served as negative (HBSS-HEPES buffer) and positive controls (standard agonists: BW245C (hDP); PGE2 (hEP1; hEP2/Gqs5; hEP3A/Gqi5; hEP4/Gqs5); PGF2 (hFP); carbacyclin (hIP); U-46619 (hTP), depending on receptor). The peak fluorescence change in each drug-containing well was then expressed relative to the controls.
as §3, with “averaged. In either, HTS or CoRe format each compound was tested on at least 3 separate plates using cells from different passages to give an n≧3.” for “averaged.”

T1 sequence (P35408 whole entry, looked up): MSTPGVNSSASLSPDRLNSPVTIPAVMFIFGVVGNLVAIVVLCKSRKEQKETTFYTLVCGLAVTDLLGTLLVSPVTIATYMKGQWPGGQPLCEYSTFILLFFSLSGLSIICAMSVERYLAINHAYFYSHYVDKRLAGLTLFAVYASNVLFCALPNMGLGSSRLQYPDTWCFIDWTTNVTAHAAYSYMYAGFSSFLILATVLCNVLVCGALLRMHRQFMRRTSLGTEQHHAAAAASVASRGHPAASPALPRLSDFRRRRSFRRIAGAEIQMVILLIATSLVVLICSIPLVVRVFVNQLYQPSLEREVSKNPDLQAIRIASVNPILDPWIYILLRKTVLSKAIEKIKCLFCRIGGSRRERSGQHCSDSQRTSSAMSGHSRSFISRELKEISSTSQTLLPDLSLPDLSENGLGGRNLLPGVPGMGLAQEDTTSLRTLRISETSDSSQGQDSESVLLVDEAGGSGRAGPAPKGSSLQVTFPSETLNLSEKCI

| SMILES | EC50 (hEP4 [1]) [nM] | IC50 (hEP4 [2]) [nM] | other results |
| --- | --- | --- | --- |
| COC(=O)CSCCCS[C@H]1C(=O)C(C)(C)[C@@H](O)[C@@H]1/C=C/C(O)CCc1sc2ccccc2c1Cl (single isomer, unassigned) [Compound 22] | 30 | 300 | – |
| CC1(C)C(=O)[C@H](SCCCSCC(=O)O)[C@@H](/C=C/C(O)CCc2sc3ccccc3c2Cl)[C@@H]1O (single isomer, unassigned) [Compound 23] | 0.1 | 44 | hTP radioligand binding IC50 (hTP): > 10000 nM; hEP3D radioligand binding IC50 (hEP3D): > 10000 nM |
| CC1(C)C(=O)[C@H](SCCCSCC(=O)O)[C@@H](/C=C/C(O)CCc2sc3ccccc3c2Cl)[C@@H]1O (single isomer, unassigned) [Compound 24] | 0.1 | 26 | hEP3D radioligand binding IC50 (hEP3D): >>10K |
| COC(=O)CCC/C=C\C[C@H]1C(=O)C(C)(C)[C@@H](O)[C@@H]1/C=C/C(O)CCc1sc2ccccc2c1Cl (single isomer, unassigned) [Compound 38] | 269 | 2700 | – |
| COC(=O)CCC/C=C\C[C@H]1C(=O)C(C)(C)[C@@H](O)[C@@H]1/C=C/C(O)CCc1sc2ccccc2c1Cl (single isomer, unassigned) [Compound 39] | 141 | 2300 | – |
| CC1(C)C(=O)[C@H](C/C=C\CCCC(=O)O)[C@@H](/C=C/C(O)CCc2sc3ccccc3c2Cl)[C@@H]1O (single isomer, unassigned) [Compound 40] | 0.3 | 200 | hTP radioligand binding IC50 (hTP): > 10000 nM |
| CC1(C)C(=O)[C@H](C/C=C\CCCC(=O)O)[C@@H](/C=C/C(O)Cc2ccccc2)[C@@H]1O (single isomer, unassigned) [Compound 47] | – | 76 | IC50 (hEP1): 963 nM; hEP3D radioligand binding IC50 (hEP3D): > 10000 nM |
| COC(=O)CCC/C=C\C[C@H]1C(=O)C(C)(C)[C@@H](O)[C@@H]1/C=C/C(O)Cc1ccccc1 (single isomer, unassigned) [Compound 48] | – | 45 | – |
| COC(=O)CCC/C=C\C[C@H]1C(=O)C(C)(C)[C@@H](O)[C@@H]1/C=C/C(O)Cc1ccccc1 (single isomer, unassigned) [Compound 49] | – | 1400 | – |
| COC(=O)CCC/C=C\C[C@H]1C(=O)C(C)(C)[C@@H](O)[C@@H]1/C=C/C(O)CCc1ccccc1 (single isomer, unassigned) [Compound 51] | – | 700 | – |
| CC1(C)C(=O)[C@H](C/C=C\CCCC(=O)O)[C@@H](/C=C/C(O)CCc2ccccc2)[C@@H]1O (single isomer, unassigned) [Compound 52] | 18 | 72 | IC50 (hEP1): 27 nM; IC50 (hEP3D): 60 nM |
| CC1(C)C(=O)[C@H](C/C=C\CCCC(=O)O)[C@@H](/C=C/C(O)CCc2ccccc2)[C@@H]1O (single isomer, unassigned) [Compound 53] | 6.4 | 59 | IC50 (hEP1): 1020 nM; IC50 (hEP3D): 1860 nM |
| CC1(C)C(=O)[C@H](C/C=C\CCCC(=O)O)[C@@H](/C=C/C(O)Cc2cc3ccccc3s2)[C@@H]1O (single isomer, unassigned) [Compound 54] | 0.3 | 20 | IC50 (hEP1): 308 nM; IC50 (hEP3D): 4700 nM |
| CC1(C)C(=O)[C@H](C/C=C\CCCC(=O)O)[C@@H](/C=C/C(O)Cc2cc3ccccc3s2)[C@@H]1O (single isomer, unassigned) [Compound 55] | 38 | 310 | IC50 (hEP1): 758 nM; hEP3D radioligand binding IC50 (hEP3D): > 10000 nM |
| CCNC(=O)CCC/C=C\C[C@H]1C(=O)C(C)(C)[C@@H](O)[C@@H]1/C=C/C(O)Cc1cc2ccccc2s1 (single isomer, unassigned) [Compound 60] | – | – | hEP4 radioligand binding IC50 (hEP4 [2]): > 10000 nM |
| CCN(CC)C(=O)CCC/C=C\C[C@H]1C(=O)C(C)(C)[C@@H](O)[C@@H]1/C=C/C(O)Cc1cc2ccccc2s1 (single isomer, unassigned) [Compound 62] | – | 832 | – |
| CCN(CC)C(=O)CCC/C=C\C[C@H]1C(=O)C(C)(C)[C@@H](O)[C@@H]1/C=C/C(O)Cc1cc2ccccc2s1 (single isomer, unassigned) [Compound 63] | – | 478 | hEP1 radioligand binding IC50 (hEP1): > 10000 nM |
| CC1(C)C(=O)[C@H](C/C=C\CCCC(=O)NCCO)[C@@H](/C=C/C(O)Cc2cc3ccccc3s2)[C@@H]1O (single isomer, unassigned) [Compound 64] | – | 4150 | – |
| CC1(C)C(=O)[C@H](C/C=C\CCCC(N)=O)[C@@H](/C=C/C(O)Cc2cc3ccccc3s2)[C@@H]1O (single isomer, unassigned) [Compound 68] | – | 678 | hTP radioligand binding IC50 (hTP): > 10000 nM |
| CC1(C)C(=O)[C@H](C/C=C\CCCC(N)=O)[C@@H](/C=C/C(O)Cc2cc3ccccc3s2)[C@@H]1O (single isomer, unassigned) [Compound 69] | – | 5000 | hTP radioligand binding IC50 (hTP): > 10000 nM |
| COC(=O)CCC/C=C\C[C@H]1C(=O)C(C)(C)[C@@H](O)[C@@H]1/C=C/C(O)Cc1cc2ccccc2s1 (single isomer, unassigned) [Compound 70] | – | 219 | hEP3D radioligand binding IC50 (hEP3D): > 10000 nM |
| COC(=O)CCC/C=C\C[C@H]1C(=O)C(C)(C)[C@@H](O)[C@@H]1/C=C/C(O)Cc1cc2ccccc2s1 (single isomer, unassigned) [Compound 71] | – | 10000 | – |
| COC(=O)CCCC#CC[C@H]1C(=O)C(C)(C)[C@@H](O)[C@@H]1/C=C/C(O)Cc1cc2ccccc2s1 (single isomer, unassigned) [Compound 72] | – | – | hEP4 radioligand binding IC50 (hEP4 [2]): > 10000 nM |
| CC1(C)C(=O)[C@H](CC#CCCCC(=O)O)[C@@H](/C=C/C(O)Cc2cc3ccccc3s2)[C@@H]1O (single isomer, unassigned) [Compound 74] | – | 256 | IC50 (hEP1): 2380 nM |
| CC1(C)C(=O)[C@H](CC#CCCCC(=O)O)[C@@H](/C=C/C(O)Cc2cc3ccccc3s2)[C@@H]1O (single isomer, unassigned) [Compound 75] | – | – | hTP radioligand binding IC50 (hTP): > 10000 nM; hEP4 radioligand binding IC50 (hEP4 [2]): > 10000 nM; IC50 (hEP1): 2050 nM |
| CCCCC[C@H](O)/C=C/[C@@H]1[C@@H](CC#CCCCC(=O)OC)C(=O)C(C)(C)[C@H]1O [Compound 42, 7-[(1R,4S,5R)-4-Hydroxy-5-((E)-(S)-3-hydroxy-oct-1-enyl)-3,3-dimethyl-2-oxo-cyclopentyl]-hept-5-ynoic acid methyl ester] | – | > 10000 | EC50 (hEP3A): 559 nM; IC50 (hEP3D): > 10000 nM |
